According to patent publication US4606856A, “[Des-1-amino, 8-glycine]calcitonin” (priority 1985, dated 1986):

Columns and labels:
[1] = test system: serum calcium concentration; test: Biological assay of calcitonin analogs in vivo: reduction of serum calcium concentration, 2×2 parallel line assay; details: rats, subcutaneous injection, serum calcium 1 hour later, compared with synthetic salmon calcitonin standard
Protocol: Rats were divided into four groups of seven animals, and each group was assigned at random to a dose of standard or test solution. Low and high doses were chosen from the linear portion of the dose-response curve. For the salmon calcitonin standard, the values were 0.7 and 2.1 ng. peptide/100 g. body weight (BW). This dose approximates 3 and 9 MU/100 g. BW. Peptides were given by subcutaneous injection (0.2 ml/100 g. BW) and blood was withdrawn 1 hour later for serum calcium determination. Sera are processed and analyzed within two hours of collection. Results were analyzed within two hours of collection. Results were analyzed by a 2×2 parallel line assay [Gaddum, J. H., J. Pharm.

[2] = test system: serum calcium concentration; details: standard salmon calcitonin used in the assay; cited from earlier work

| Substance | biological potency [1] [IU/mg] | biological potency of the standard, independently determined [2] |
| --- | --- | --- |
| [Des-1-Amino, 8-Glycine]salmon calcitonin [[Des-1-Amino, Gly^8]SCT] | 4750 |  |
| Salmon calcitonin [standard salmon calcitonin] |  | greater than 4,000 IU/mg |
